Columns and labels:
[1] = test system: ncAA-substituted synthetic antibody clones; assay: UV-mediated photocrosslinking of ncAA-substituted synthetic antibody clones on the yeast surface; conditions: identical sets of crosslinking conditions
Method: (§1) Experiments were undertaken to expand the tools available for genetically encoding crosslinkable ncAAs in proteins produced in yeast. As described in the above examples, a large number of aminoacyl-tRNA synthetase (aaRS) variants were discovered that support translation with a broad set of ncAAs. Here, several of these aaRSs were evaluated alongside previously described variants to evaluate their support of protein translation with the ncAAs O-(2-bromoethyl)tyrosine (Obey), 4-benzoyl-1-phenylalanine (Bpa), or N^6-((2-(3-methyl-3H-diazirin-3-yl)ethoxy)carbonyl)-L-lysine (Photo-Lysine, Phk) (FIG. 12A). Although none of these ncAAs were used in any of the screening efforts described in the above Examples. several variants from the screens were nevertheless identified that supported translation at moderate to high efficiencies with Obey and Phk. […] The potential utility of these spontaneously crosslinkable and photocrosslinkable ncAAs was also investigated. […] The display and binding activities of these peptides were confirmed. […] For the cases of Phk and Bpa, photocrosslinkability on the yeast surface was investigated utilizing ncAA-substituted synthetic antibody clones and alongside AzF-substituted clones known to undergo UV-mediated crosslinking.

antigen = assay: Antigen binding of yeast-displayed synthetic antibody fragments substituted with ncAAs; conditions: ncAA incorporated into yeast-displayed synthetic antibody fragments
Method: as §1

streptavidin = streptavidin (Streptomyces avidinii, UniProt P22629); assay: Display and binding of ncAA-substituted anti-streptavidin peptides on the yeast surface
Method: as §1

Chain of streptavidin (P22629 25-183, species assumed): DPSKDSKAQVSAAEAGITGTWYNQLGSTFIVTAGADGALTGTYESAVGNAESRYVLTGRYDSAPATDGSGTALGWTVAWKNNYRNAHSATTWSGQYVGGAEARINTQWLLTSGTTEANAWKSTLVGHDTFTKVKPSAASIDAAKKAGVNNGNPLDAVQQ

Row | SMILES | crosslinking on the yeast surface (in words) [1] | antigen binding of ncAA-substituted constructs (in words) (antigen) | display and binding activities of ncAA-substituted peptides (in words) (streptavidin)
1 | N[C@@H](Cc1ccc(C(=O)c2ccccc2)cc1)C(=O)O [Bpa, 4-benzoyl-1-phenylalanine] | clear evidence | retained antigen binding | 
2 | C#CCOc1ccc(C[C@H](N)C(=O)O)cc1 [OPG, p-propargyloxy-L-phenylalanine] |  |  | confirmed
3 | N[C@@H](Cc1ccc(OCCBr)cc1)C(=O)O [Obey, O-(2-Bromoethyl)-L-tyrosine] |  | retained antigen binding | confirmed
4 | CC1(CCOC(=O)NCCCC[C@H](N)C(=O)O)N=N1 [Phk, N^6-((2-(3-methyl-3H-diazirin-3-yl)ethoxy)carbonyl)-L-lysine] | did not appear to undergo detectable crosslinking | retained antigen binding | 
5 | [N-]=[N+]=Nc1ccc(C[C@H](N)C(=O)O)cc1 [AzF, p-azido-L-phenylalanine] | clear evidence |  | 
